Results from US20100267561A1, “HERBICIDAL PYRIDAZINONE DERIVATIVES” (priority 2007, published 2010).

Assays:
Format in all cases: in vivo
[1] = system: giant foxtail (Setaria faberi); test: Test A pre-/postemergence plant response
Method in brief: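 Seeds in loam soil/sand blend treated preemergence by directed soil spray, with simultaneous postemergence spray on 2–10 cm plants at one- to two-leaf stage; compounds in non-phytotoxic solvent with surfactant. Injury visually rated versus untreated controls after about 10 days in greenhouse, 0 (no effect) to 100 (complete control).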

[2] = system: goosegrass (Eleusine indica); test: Test B pre-/postemergence plant response
Method in brief: (§1)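 Preemergence and postemergence (plants 2-18 cm, 1- to 4-leaf stage) applications used test chemicals in a non-phytotoxic solvent with surfactant. Plants were held in a greenhouse 13 to 15 days, then rated visually against controls on a 0-100 scale (0 no effect, 100 complete control).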

[3] = system: johnsongrass (Sorghum halepense); test: Test B pre-/postemergence plant response
Method in brief: as §1

[4] = system: giant foxtail (Setaria faberii); test: Test B pre-/postemergence plant response
Method in brief: as §1

[5] = system: blackgrass (Alopecurus myosuroides); test: Test B pre-/postemergence plant response; conditions: for Blackgrass plant response rating: 8 g ai/ha
Method in brief: as §1

[6] = system: downy bromegrass (Bromus tectorum); test: Test B pre-/postemergence plant response; conditions: for Bromegrass, Downy plant response rating: 8 g ai/ha
Method in brief: as §1

[7] = system: wheat (Triticum aestivum); test: Test B pre-/postemergence plant response
Method in brief: as §1

[8] = system: common (oilseed) sunflower (Helianthus annuus); test: Test B pre-/postemergence plant response; conditions: Preemergence; for Sunflower plant response rating: scale 0 to 100
Method in brief: as §1

[9] = system: bermudagrass (Cynodon dactylon); test: Test B pre-/postemergence plant response; conditions: for Bermudagrass plant response rating: 8 g ai/ha
Method in brief: as §1

soybean (Glycine max) = test: Test B pre-/postemergence plant response; conditions: Preemergence; for Soybean plant response rating: scale 0 to 100
Method in brief: as §1

[10] = system: velvetleaf (Abutilon theophrasti); test: Test B pre-/postemergence plant response
Method in brief: as §1

[11] = system: pigweed (Amaranthus retroflexus); test: Test B pre-/postemergence plant response
Method in brief: as §1

[12] = 8 g ai/ha, postemergence, 0-100 scale
[13] = 16 g ai/ha, postemergence, 0-100 scale
[14] = Postemergence, 31 g ai/ha, scale 0 to 100
[15] = Postemergence, 62 g ai/ha, scale 0 to 100, 0 no effect, 100 complete control
[16] = Preemergence, 31 g ai/ha, scale 0 to 100 (0 no effect, 100 complete control)
[17] = Preemergence, 62 g ai/ha, 0 to 100 scale, 0 no effect, 100 complete control
[18] = Preemergence, 8 g ai/ha, scale 0 to 100
[19] = Preemergence, 16 g ai/ha, scale 0 to 100
[20] = Postemergence, 16 g ai/ha, scale 0 to 100
[21] = Preemergence, 16 g ai/ha, scale 0 to 100 (0 no effect, 100 complete control)
[22] = 31 g ai/ha, scale 0 to 100 (0 no effect, 100 complete control)
[23] = 62 g ai/ha, 0 to 100 scale, 0 no effect, 100 complete control

**Q.** Which results are given for `CCc1cc(-c2ccc(Br)cc2)nn1-c1c(O)cnn(C)c1=O` [Compound 61]?
**A.** Plant response rating, Foxtail, Giant ([1]; Postemergence, 31 g ai/ha, 0 to 100 scale (0 no effect, 100 complete control)): 100; Plant response rating, Foxtail, Giant ([1]; Postemergence, 125 g ai/ha, 0 to 100 scale, 0 no effect, 100 complete control): 100; Plant response rating, Foxtail, Giant ([1]; Preemergence, 31 g ai/ha, 0 to 100 scale, 0 is no effect, 100 is complete control): 100; Plant response rating, Foxtail, Giant ([1]; Preemergence, 125 g ai/ha, 0 to 100 scale (0 no effect, 100 complete control)): 100; Goosegrass plant response rating [2, 12]: 98; Goosegrass plant response rating [2, 13]: 100; Plant response rating, Goosegrass [2, 14]: 100; Plant response rating, Goosegrass [2, 15]: 100; Plant response rating, Goosegrass [2, 16]: 100; Plant response rating, Goosegrass [2, 17]: 100; Goosegrass plant response rating [2, 18]: 80; Goosegrass plant response rating [2, 19]: 100; Johnsongrass plant response rating [3, 12]: 65; Johnsongrass plant response rating [3, 13]: 100; Plant response rating, Johnsongrass [3, 14]: 100; Plant response rating, Johnsongrass [3, 15]: 100; Plant response rating, Johnsongrass [3, 16]: 100; Plant response rating, Johnsongrass [3, 17]: 100; Johnsongrass plant response rating [3, 18]: 90; Johnsongrass plant response rating [3, 19]: 95; Foxtail, Giant plant response rating [4, 12]: 98; Plant response rating, Foxtail, Giant [4, 20]: 100; Plant response rating, Foxtail, Giant [4, 14]: 100; Plant response rating, Foxtail, Giant [4, 15]: 100; Plant response rating, Foxtail, Giant [4, 16]: 100; Plant response rating, Foxtail, Giant [4, 17]: 100; Foxtail, Giant plant response rating [4, 18]: 75; Foxtail, Giant plant response rating [4, 19]: 100; Blackgrass plant response rating ([5]; postemergence, 0-100 scale): 85; Plant response rating, Blackgrass [5, 20]: 100; Plant response rating, Blackgrass [5, 14]: 100; Plant response rating, Blackgrass [5, 15]: 100; Plant response rating, Blackgrass [5, 21]: 100; Plant response rating, Blackgrass [5, 16]: 100; Plant response rating, Blackgrass [5, 17]: 100; Blackgrass plant response rating ([5]; Preemergence, scale 0 to 100): 40; Bromegrass, Downy plant response rating ([6]; postemergence, 0-100 scale): 80; Plant response rating, Bromegrass, Downy [6, 20]: 90; Plant response rating, Bromegrass, Downy [6, 14]: 98; Plant response rating, Bromegrass, Downy [6, 15]: 98; Plant response rating, Bromegrass, Downy [6, 21]: 90; Plant response rating, Bromegrass, Downy [6, 16]: 95; Plant response rating, Bromegrass, Downy [6, 17]: 95; Bromegrass, Downy plant response rating ([6]; Preemergence, scale 0 to 100): 0; Wheat plant response rating [7, 12]: 90; Wheat plant response rating [7, 13]: 95; Plant response rating, Wheat [7, 14]: 98; Plant response rating, Wheat [7, 15]: 100; Plant response rating, Wheat [7, 16]: 90; Plant response rating, Wheat [7, 17]: 95; Wheat plant response rating [7, 19]: 30; Plant response rating, Sunflower [8, 22]: 0; Plant response rating, Sunflower [8, 23]: 0; Sunflower plant response rating ([8]; 8 g ai/ha): 0; Sunflower plant response rating ([8]; 16 g ai/ha): 0; Bermudagrass plant response rating ([9]; postemergence, 0-100 scale): 55; Plant response rating, Bermudagrass [9, 20]: 70; Plant response rating, Bermudagrass [9, 14]: 95; Plant response rating, Bermudagrass [9, 15]: 100; Bermudagrass plant response rating ([9]; Preemergence, scale 0 to 100 (0 no effect, 100 complete control)): 55; Plant response rating, Bermudagrass [9, 21]: 80; Plant response rating, Bermudagrass [9, 16]: 90; Plant response rating, Bermudagrass [9, 17]: 95; Plant response rating, Soybean (soybean (Glycine max); [22]): 0; Plant response rating, Soybean (soybean (Glycine max); [23]): 0; Soybean plant response rating (soybean (Glycine max); 8 g ai/ha): 0; Soybean plant response rating (soybean (Glycine max); 16 g ai/ha): 0; Velvetleaf plant response rating [10, 12]: 0; Velvetleaf plant response rating [10, 13]: 0; Plant response rating, Velvetleaf [10, 14]: 0; Plant response rating, Velvetleaf [10, 15]: 0; Plant response rating, Velvetleaf [10, 16]: 0; Plant response rating, Velvetleaf [10, 17]: 0; Velvetleaf plant response rating [10, 18]: 0; Velvetleaf plant response rating [10, 19]: 0; Pigweed plant response rating [11, 12]: 0; Pigweed plant response rating [11, 13]: 0; Plant response rating, Pigweed [11, 14]: 0; Plant response rating, Pigweed [11, 15]: 0; Plant response rating, Pigweed [11, 16]: 0; Plant response rating, Pigweed [11, 17]: 0; Pigweed plant response rating [11, 18]: 0; Pigweed plant response rating [11, 19]: 0
